{"source": "paper PMC9518264", "about": "“Design and synthesis of novel quinazolinone-based derivatives as EGFR inhibitors with antitumor activity” (Journal of Enzyme Inhibition and Medicinal Chemistry, 2022)", "key": {"[1]": {"tested_on": "UO-31", "test": "cells", "assay_type": "cell-based"}, "[2]": {"biological_target": "EGFR (Homo sapiens, UniProt P00533)", "sequence (P00533 669-1210)": "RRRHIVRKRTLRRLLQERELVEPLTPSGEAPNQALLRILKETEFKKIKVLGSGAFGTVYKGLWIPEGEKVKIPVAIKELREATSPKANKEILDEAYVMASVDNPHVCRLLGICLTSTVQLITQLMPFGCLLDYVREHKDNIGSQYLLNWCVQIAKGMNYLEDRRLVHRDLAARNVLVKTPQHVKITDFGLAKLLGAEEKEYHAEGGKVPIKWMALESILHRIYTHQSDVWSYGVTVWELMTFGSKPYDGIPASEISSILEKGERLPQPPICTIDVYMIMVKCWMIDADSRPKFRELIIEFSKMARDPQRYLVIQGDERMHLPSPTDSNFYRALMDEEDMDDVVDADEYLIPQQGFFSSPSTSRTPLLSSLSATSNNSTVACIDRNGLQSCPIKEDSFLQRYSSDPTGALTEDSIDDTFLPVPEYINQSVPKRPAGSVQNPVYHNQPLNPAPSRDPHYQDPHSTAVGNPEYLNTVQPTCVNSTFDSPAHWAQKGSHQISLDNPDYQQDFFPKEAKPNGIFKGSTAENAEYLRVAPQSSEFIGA", "test": "In vitro EGFR kinase inhibitory assay (Kinase-Glo Max luminescence kit)", "assay_type": "biochemical"}, "[3]": {"tested_on": "OVCAR-5", "test": "cells", "assay_type": "cell-based"}, "[4]": {"tested_on": "M14", "test": "cells", "assay_type": "cell-based"}, "[5]": {"tested_on": "HS 578T", "test": "cells", "assay_type": "cell-based"}, "[6]": {"tested_on": "caspase-3", "test": "Caspase-3 activation (ELISA) in breast HS 578T cancer cell line", "assay_type": "cell-based, human", "experimental": "Apoptosis is triggered by the activation of caspases, particularly caspase-3, which is an […] caspase responsible for apoptosis. Therefore, the induction of apoptosis by compound 6d was examined by the evaluation of caspase-3 activation in breast HS 578T cancer cell line. The effect of erlotinib as well as untreated cell line was used as positive and negative control, respectively. […] . […]\nincubated for 15 minutes in the dark at room temperature. FacsCalibur was used to assess cell fluorescence after incubation (BD Biosciences, USA). The results were represented using dot-plot graphs.\n1.1.5. Caspase-3 enzyme assay\nThe level of the apoptotic marker caspase-3 was measured using Invitrogen ELISA Kit Catalog # KHO1091. The procedure of the used kit was performed according to the manufacturer’s instructions. Let all components to reach room temperature before use. Gently combine all liquid reagents prior to use. Add 100 μL of the standard diluent buffer to the zero standard wells. Add 100 μL of standards and controls or diluted samples to the appropriate microtiter wells. Incubate for 2 h at room temperature. Pipette 100 μL of Caspase-3 (Active) detection antibody solution into each well. […] Read the absorbance of each well at 450 nm. Read the plate within 2 h after adding the stop solution. […] Read the concentrations for unknown samples and controls from the standard curve."}, "[7]": {"tested_on": "RXF 393", "test": "cells", "assay_type": "cell-based"}, "[8]": {"tested_on": "SF-268", "test": "cells", "assay_type": "cell-based"}, "[9]": {"tested_on": "MALME-3M", "test": "cells", "assay_type": "cell-based"}, "[10]": {"tested_on": "HS 578T cells", "test": "Cell cycle analysis by DNA flow cytometry (propidium iodide)", "procedure": "Flow cytometry was used to analyse the cell cycle using ab139418 propidium iodide flow cytometry kit/BD (Abcam, Cambridge, UK), as directed by the manufacturer guidelines.\nThe cells were washed twice with ice-cold phosphate buffer saline (PBS) and collected by centrifugation.\n(v/v) ethanol, washed with PBS, and re-suspended with 0.1 mg/mL RNase to digest cellular RNA and thus minimize stained RNA in the background. The cells were next stained with PI, a fluorescent molecule that may bind to nucleic acid, at a concentration of 40 mg/mL. In cells, PI attaches to DNA in proportion to its amount. Because the DNA content of cells at different stages of the cell cycle differs, the fluorescence intensity can be used to assess the stage of cell growth. FacsCalibur (BD Biosciences, USA) was used to estimate cell fluorescence, which was then examined using Cell-Quest software (Becton Dickinson)."}, "[11]": {"tested_on": "MDA-MB-231/ATCC", "test": "NCI 60 cell line antiproliferative screening (SRB), Breast cancer", "assay_type": "cell-based"}, "[12]": {"tested_on": "OVCAR-8", "test": "cells", "assay_type": "cell-based"}, "[13]": {"tested_on": "HS 578T cells", "test": "Annexin V/PI dual staining apoptosis assay", "assay_type": "cell-based, human"}, "[14]": {"tested_on": "T-47D", "test": "cells", "assay_type": "cell-based"}, "[15]": {"tested_on": "SK-MEL-2", "test": "cells", "assay_type": "cell-based"}, "[16]": {"tested_on": "CAKI-1", "test": "cells", "assay_type": "cell-based"}, "[17]": {"tested_on": "HOP-92", "test": "cells", "assay_type": "cell-based"}, "[18]": {"tested_on": "UACC-257", "test": "cells", "assay_type": "cell-based"}, "[19]": {"conditions": "24 h at 2.17 µM, vs untreated control"}}}
{"smiles": "O=C(CSc1nc2ccccc2c(=O)n1-c1ccc(Cl)cc1)NN=Cc1ccc(Oc2ccc(Cl)cc2)cc1", "note": "[6d, N'-(4–(4-chlorophenoxy)benzylidene)-2-((3–(4-chlorophenyl)-4-oxo-3,4-dihydroquinazolin-2-yl)thio)acetohydrazide]", "values": [{"measurement": "GI50", "setting": "[1]; Homo sapiens, UO-31", "result": 7.47, "unit": "µM"}, {"measurement": "inhibition at 10 µM", "setting": "[1]; Homo sapiens, UO-31, read-out: growth inhibition % (GI%)", "result": "< 15", "unit": "%"}, {"measurement": "CC50", "setting": "[1]; Homo sapiens, UO-31, 5 doses, read-out: LC50 (the source's name)", "result": 47.1, "unit": "µM"}, {"measurement": "TGI", "setting": "[1]; UO-31, 5 doses", "result": 21.1, "unit": "µM"}, {"measurement": "IC50", "setting": "[2]", "result": "69 ± 4", "unit": "nM"}, {"measurement": "GI50", "setting": "[3]; Homo sapiens, OVCAR-5", "result": 2270, "unit": "nM"}, {"measurement": "inhibition at 10 µM", "setting": "[3]; Homo sapiens, OVCAR-5, read-out: growth inhibition % (GI%)", "result": 29.4, "unit": "%"}, {"measurement": "CC50", "setting": "[3]; Homo sapiens, OVCAR-5, 5 doses, read-out: LC50 (the source's name)", "result": 32.2, "unit": "µM"}, {"measurement": "TGI", "setting": "[3]; OVCAR-5, 5 doses", "result": 6.44, "unit": "µM"}, {"measurement": "GI50", "setting": "[4]; Homo sapiens, M14", "result": 1580, "unit": "nM"}, {"measurement": "inhibition at 10 µM", "setting": "[4]; Homo sapiens, M14, read-out: growth inhibition % (GI%)", "result": "> 100", "unit": "%"}, {"measurement": "CC50", "setting": "[4]; Homo sapiens, M14, 5 doses, read-out: LC50 (the source's name)", "result": 7.58, "unit": "µM"}, {"measurement": "TGI", "setting": "[4]; M14, 5 doses", "result": 3.47, "unit": "µM"}, {"measurement": "TGI", "setting": "[5]; HS 578T, 5 doses", "result": 6.36, "unit": "µM"}, {"measurement": "GI50", "setting": "[5]; Homo sapiens, Hs-578T", "result": 2170, "unit": "nM"}, {"measurement": "inhibition at 10 µM", "setting": "[5]; Homo sapiens, Hs-578T, read-out: growth inhibition % (GI%)", "result": 78.6, "unit": "%"}, {"measurement": "CC50", "setting": "[5]; Homo sapiens, HS 578T, 5 doses, read-out: LC50 (the source's name)", "result": "> 100", "unit": "µM"}, {"measurement": "increase of caspase-3 level compared to negative control", "setting": "[6]", "result": 10.75, "unit": "fold"}, {"measurement": "GI50", "setting": "[7]; Homo sapiens, RXF 393", "result": 1700, "unit": "nM"}, {"measurement": "inhibition at 10 µM", "setting": "[7]; Homo sapiens, RXF 393, read-out: growth inhibition % (GI%)", "result": "> 100", "unit": "%"}, {"measurement": "CC50", "setting": "[7]; Homo sapiens, RXF 393, 5 doses, read-out: LC50 (the source's name)", "result": 5.81, "unit": "µM"}, {"measurement": "TGI", "setting": "[7]; RXF 393, 5 doses", "result": 3.14, "unit": "µM"}, {"measurement": "GI50", "setting": "[8]; Homo sapiens, SF-268", "result": 3.85, "unit": "µM"}, {"measurement": "inhibition at 10 µM", "setting": "[8]; Homo sapiens, SF-268, read-out: growth inhibition % (GI%)", "result": 44.2, "unit": "%"}, {"measurement": "LC50", "setting": "[8]; Homo sapiens, SF-268, 5 doses", "result": "> 100", "unit": "µM"}, {"measurement": "TGI", "setting": "[8]; SF-268, 5 doses", "result": 23.9, "unit": "µM"}, {"measurement": "GI50", "setting": "[9]; Homo sapiens, Malme-3M", "result": 1380, "unit": "nM"}, {"measurement": "inhibition at 10 µM", "setting": "[9]; Homo sapiens, Malme-3M, read-out: growth inhibition % (GI%)", "result": "> 100", "unit": "%"}, {"measurement": "CC50", "setting": "[9]; Homo sapiens, MALME-3M, 5 doses, read-out: LC50 (the source's name)", "result": 5.55, "unit": "µM"}, {"measurement": "TGI", "setting": "[9]; MALME-3M, 5 doses", "result": 2.77, "unit": "µM"}, {"measurement": "phase of cell cycle arrest", "setting": "[10]", "result": "G1/S phase"}, {"measurement": "increase of cell population in the pre-G1 phase", "setting": "[10]; 24 h at 2.17 µM, vs control", "result": 16.74, "unit": "fold"}, {"measurement": "decrease in the cell population at the G2/M phase", "setting": "[10]; [19]", "result": 52, "unit": "%"}, {"measurement": "increase of proportion of cells in G0-G1 phase", "setting": "[10]; [19]", "result": 1.12, "unit": "fold"}, {"measurement": "increase of proportion of cells in S phase", "setting": "[10]; [19]", "result": 1.12, "unit": "fold"}, {"measurement": "GI50", "setting": "[11]; Homo sapiens, MDA-MB-231", "result": 1790, "unit": "nM"}, {"measurement": "inhibition at 10 µM", "setting": "[11]; Homo sapiens, MDA-MB-231, read-out: growth inhibition % (GI%)", "result": 69.6, "unit": "%"}, {"measurement": "CC50", "setting": "[11]; Homo sapiens, MDA-MB-231/ATCC, 5 doses, read-out: LC50 (the source's name)", "result": 8.51, "unit": "µM"}, {"measurement": "TGI", "setting": "[11]; MDA-MB-231/ATCC, 5 doses", "result": 3.9, "unit": "µM"}, {"measurement": "GI50", "setting": "[12]; Homo sapiens, OVCAR-8", "result": 2410, "unit": "nM"}, {"measurement": "inhibition at 10 µM", "setting": "[12]; Homo sapiens, OVCAR-8, read-out: growth inhibition % (GI%)", "result": 86.6, "unit": "%"}, {"measurement": "CC50", "setting": "[12]; Homo sapiens, OVCAR-8, 5 doses, read-out: LC50 (the source's name)", "result": "> 100", "unit": "µM"}, {"measurement": "TGI", "setting": "[12]; OVCAR-8, 5 doses", "result": 6.56, "unit": "µM"}, {"measurement": "increase in total apoptosis compared to the control", "setting": "[13]", "result": 16.74, "unit": "fold"}, {"measurement": "Apoptosis Early", "setting": "[13]; IC50 concentration, 24 h", "result": 19.24, "unit": "%"}, {"measurement": "Apoptosis Late", "setting": "[13]; IC50 concentration, 24 h", "result": 13.45, "unit": "%"}, {"measurement": "Apoptosis Total", "setting": "[13]; IC50 concentration, 24 h", "result": 39.02, "unit": "%"}, {"measurement": "Necrosis", "setting": "[13]; IC50 concentration, 24 h", "result": 6.33, "unit": "%"}, {"measurement": "GI50", "setting": "[14]; Homo sapiens, T47D", "result": 2090, "unit": "nM"}, {"measurement": "inhibition at 10 µM", "setting": "[14]; Homo sapiens, T47D, read-out: growth inhibition % (GI%)", "result": 69.9, "unit": "%"}, {"measurement": "CC50", "setting": "[14]; Homo sapiens, T47D, T-47D, 5 doses, read-out: LC50 (the source's name)", "result": 49.5, "unit": "µM"}, {"measurement": "TGI", "setting": "[14]; T-47D, 5 doses", "result": 5.76, "unit": "µM"}, {"measurement": "GI50", "setting": "[15]; Homo sapiens", "result": 2860, "unit": "nM"}, {"measurement": "inhibition at 10 µM", "setting": "[15]; Homo sapiens, SK-MEL-2, read-out: growth inhibition % (GI%)", "result": 45.7, "unit": "%"}, {"measurement": "CC50", "setting": "[15]; Homo sapiens, SK-MEL-2, 5 doses, read-out: LC50 (the source's name)", "result": 41.3, "unit": "µM"}, {"measurement": "TGI", "setting": "[15]; SK-MEL-2, 5 doses", "result": 8.93, "unit": "µM"}, {"measurement": "TGI", "setting": "[16]; CAKI-1, 5 doses", "result": 12.0, "unit": "µM"}, {"measurement": "GI50", "setting": "[16]; Homo sapiens, CAKI-1", "result": 3.06, "unit": "µM"}, {"measurement": "inhibition at 10 µM", "setting": "[16]; Homo sapiens, CAKI-1, read-out: growth inhibition % (GI%)", "result": 67, "unit": "%"}, {"measurement": "CC50", "setting": "[16]; Homo sapiens, CAKI-1, 5 doses, read-out: LC50 (the source's name)", "result": 35.4, "unit": "µM"}, {"measurement": "TGI", "setting": "[17]; HOP-92, 5 doses", "result": 5.62, "unit": "µM"}, {"measurement": "GI50", "setting": "[17]; Homo sapiens, HOP-92", "result": 2070, "unit": "nM"}, {"measurement": "inhibition at 10 µM", "setting": "[17]; Homo sapiens, HOP-92, read-out: growth inhibition % (GI%)", "result": 97.4, "unit": "%"}, {"measurement": "LC50 (concentration killing 50% of cells)", "setting": "[17]; Homo sapiens, HOP-92, 5 doses", "result": 22.8, "unit": "µM"}, {"measurement": "GI50", "setting": "[18]; Homo sapiens, UACC-257", "result": 4.62, "unit": "µM"}, {"measurement": "inhibition at 10 µM", "setting": "[18]; Homo sapiens, UACC-257, read-out: growth inhibition % (GI%)", "result": 41, "unit": "%"}, {"measurement": "CC50", "setting": "[18]; Homo sapiens, UACC-257, 5 doses, read-out: LC50 (the source's name)", "result": "> 100", "unit": "µM"}, {"measurement": "TGI", "setting": "[18]; UACC-257, 5 doses", "result": 22.5, "unit": "µM"}]}
